Experimental data published in BindingDB's records for doi:10.7270/Q2Q52N1X (Vanderbilt Screening Center for GPCRs, Ion Channels and …, 2009).

Target: T1, Solute carrier family 12 member 5 (Homo sapiens, UniProt Q9H2X9)
T1 sequence (Q9H2X9 whole entry): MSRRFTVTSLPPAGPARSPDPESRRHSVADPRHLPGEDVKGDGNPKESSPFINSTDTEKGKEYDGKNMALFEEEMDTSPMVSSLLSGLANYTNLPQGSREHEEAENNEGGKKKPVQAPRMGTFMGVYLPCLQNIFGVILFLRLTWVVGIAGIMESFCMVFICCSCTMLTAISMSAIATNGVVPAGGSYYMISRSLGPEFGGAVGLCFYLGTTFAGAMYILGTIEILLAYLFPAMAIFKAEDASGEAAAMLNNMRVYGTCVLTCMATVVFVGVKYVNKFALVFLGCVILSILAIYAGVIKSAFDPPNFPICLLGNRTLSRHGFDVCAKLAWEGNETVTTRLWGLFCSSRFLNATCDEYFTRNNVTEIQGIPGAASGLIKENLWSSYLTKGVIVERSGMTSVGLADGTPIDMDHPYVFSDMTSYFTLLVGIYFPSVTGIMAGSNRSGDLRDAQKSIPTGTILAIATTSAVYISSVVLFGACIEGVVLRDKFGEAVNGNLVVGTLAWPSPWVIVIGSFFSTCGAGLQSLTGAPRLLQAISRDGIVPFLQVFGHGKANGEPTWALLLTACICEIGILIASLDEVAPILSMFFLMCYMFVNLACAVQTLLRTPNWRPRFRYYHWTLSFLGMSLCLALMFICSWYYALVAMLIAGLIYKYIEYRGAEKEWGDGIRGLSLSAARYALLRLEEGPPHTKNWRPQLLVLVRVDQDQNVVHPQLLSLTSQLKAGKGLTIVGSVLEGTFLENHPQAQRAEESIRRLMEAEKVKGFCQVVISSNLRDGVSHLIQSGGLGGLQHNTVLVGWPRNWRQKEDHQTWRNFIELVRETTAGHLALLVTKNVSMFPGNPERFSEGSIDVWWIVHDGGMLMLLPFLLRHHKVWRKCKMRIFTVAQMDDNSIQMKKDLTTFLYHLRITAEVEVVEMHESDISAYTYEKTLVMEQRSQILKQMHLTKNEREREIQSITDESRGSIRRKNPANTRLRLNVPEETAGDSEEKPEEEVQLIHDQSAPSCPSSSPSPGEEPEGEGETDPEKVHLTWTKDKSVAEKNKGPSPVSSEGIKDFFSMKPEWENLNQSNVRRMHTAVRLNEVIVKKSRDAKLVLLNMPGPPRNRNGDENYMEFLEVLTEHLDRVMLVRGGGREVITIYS
Experiment: concentration-response of KCC2 transport modulators – cell-based, HEK293 KCC2, FluoZin-2 fluorescence, dose response (AID 1736)

[1] = inactive by the depositor's call

| SMILES | EC50 [µM] | EC50 [1] [µM] |
| --- | --- | --- |
| O=C(O)/C=C/c1cn(Cc2ccccc2Cl)nc1-c1ccccc1 [(E)-3-[1-(2-chlorobenzyl)-3-phenyl-pyrazol-4-yl]acrylic acid] | 2.04 | – |
| O=C(c1ccc(N2CCCCCC2)c([N+](=O)[O-])c1)N1CCc2ccccc21 [1-(4-azepan-1-yl-3-nitrobenzoyl)indoline] | 0.556 | – |
| N#CC(C(=O)COc1ccccc1)c1nc2ccccc2s1 (stereo not drawn) [(2Z)-2-(3H-1,3-benzothiazol-2-ylidene)-3-keto-4-phenoxy-butyronitrile] | 6.56 | – |
| Cc1ccc(C(=O)CC=Nc2ccccc2C(N)=O)cc1 [2-[[(E)-3-(4-methylphenyl)-3-oxidanylidene-prop-1-enyl]amino]benzamide] | 7.95 | – |
| O=C(NN1C(=O)/C(=C/c2nc3ccccc3[nH]2)SC1=S)c1ccccc1Cl [N-{5-[1-(1H-Benzoimidazol-2-yl)-meth-(Z)-ylidene]-4-oxo-2-thioxo-thiazolidin-3-yl}-2-chloro-benzamide] | 0.153 | – |
| O=C(NN=Cc1ccc(OCc2ccccc2)cc1)c1cc[n+](Cc2ccccc2)cc1 [1-benzyl-4-({2-[4-(benzyloxy)benzylidene]hydrazino}carbonyl)pyridinium chloride] | 563 | – |
| Cn1cc(C(=O)C(=O)N2CCCc3ccccc32)c2ccccc21 [1-(3,4-dihydro-2H-quinolin-1-yl)-2-(1-methyl-3-indolyl)ethane-1,2-dione] | 3.72 | – |
| Cc1noc(C)c1S(=O)(=O)N1CCC(C(=O)N2CCN(c3ccc(F)cc3)CC2)CC1 [1-({1-[(3,5-dimethylisoxazol-4-yl)sulfonyl]piperidin-4-yl}carbonyl)-4-(4-fluorophenyl)piperazine] | 7.58 | – |
| CCOC(=O)c1c(C)[nH]c(C)c1C(=O)CSc1nc(N)cc(N)n1 [SMR000063952] | – | 1.88 |
| O=C(OCC(=O)N1CCc2ccccc2C1)c1ccc(N2CCOCC2)c([N+](=O)[O-])c1 [4-(4-morpholinyl)-3-nitrobenzoic acid [2-(3,4-dihydro-1H-isoquinolin-2-yl)-2-oxoethyl] ester] | 5.9 | – |
| CN1C(C(=O)NCc2ccccc2)CC2Cn3c(nc4cc(Cl)c(Cl)cc43)C21 (stereo not drawn) [MLS000877509] | – | 64 |
| Cc1nnc(NC(=O)c2ccc3ccccc3c2)o1 [MLS000056450] | – | 85.7 |
| Oc1ccccc1CN=Nc1nc2ccccc2o1 [(6E)-6-[(1,3-benzoxazol-2-ylhydrazo)methylidene]-1-cyclohexa-2,4-dienone] | 3040 | – |
| c1ccc(-c2csc(N=NCc3cccnc3)n2)cc1 [(4-phenylthiazol-2-yl)-(3-pyridylmethyleneamino)amine] | 35.8 | – |
| Cc1noc(/C=C/c2ccco2)c1S(=O)(=O)N1CCC(C(=O)N2CCc3ccccc3C2)CC1 [2-{[1-({5-[(E)-2-(2-furyl)vinyl]-3-methylisoxazol-4-yl}sulfonyl)piperidin-4-yl]carbonyl}-1,2,3,4-tetrahydroisoquinoline] | 5.35 | – |
| Sc1nnc(CCc2ccc(Cl)cc2)o1 [5-[2-(4-chlorophenyl)ethyl]-1,3,4-oxadiazole-2-thiol] | 2.47 | – |
| Cc1ccc(C=Nn2c(-c3ccc(Cl)cc3)n[nH]c2=S)s1 [3-(4-chlorophenyl)-4-[(5-methyl-2-thiophenyl)methylideneamino]-1H-1,2,4-triazole-5-thione] | – | 188 |
| CC(NC(=O)CCc1nnc(-c2ccc(-c3ccccc3)cc2)o1)c1nccs1 (stereo not drawn) [3-(5-biphenyl-4-yl-1,3,4-oxadiazol-2-yl)-N-[1-(1,3-thiazol-2-yl)ethyl]propanamide] | 4.79 | – |
| CCOc1cc(Br)ccc1S(=O)(=O)NCc1ccccc1 [4-bromanyl-2-ethoxy-N-(phenylmethyl)benzenesulfonamide] | 1.36 | – |
| CC1Cc2ccccc2N1C(=O)CSc1nnnn1Cc1ccccc1 (stereo not drawn) [1-(2-methyl-2,3-dihydroindol-1-yl)-2-[[1-(phenylmethyl)-1,2,3,4-tetrazol-5-yl]sulfanyl]ethanone] | 1.91 | – |
| CCOC(=O)c1sc(Nc2nc3c(OC)cccc3s2)nc1C [SMR000027213] | 155 | – |
| O=C(CSc1nnc(CNc2ccccc2)o1)N1CCCc2ccccc21 [1-(3,4-Dihydro-2H-quinolin-1-yl)-2-(5-phenylaminomethyl-[1,3,4]oxadiazol-2-ylsulfanyl)-ethanone] | 34.6 | – |

| SMILES | EC50 [µM] | EC50 [1] [µM] |
| --- | --- | --- |
| O=C(NCCc1csc(-c2ccccc2)n1)c1cccs1 [MLS000102716] | 7.34 | – |
| CC(C)(C)NC(=O)C(c1cccs1)N(CC1CCCO1)C(=O)c1ccc(-c2ccccc2)[nH]1 (stereo not drawn) [N-[2-(tert-butylamino)-2-oxo-1-thiophen-2-ylethyl]-N-(2-oxolanylmethyl)-5-phenyl-1H-pyrrole-2-carboxamide] | 1.93 | – |
| CC(=O)NCC1CCCN(c2nc3nonc3nc2N(C)Cc2ccccc2)C1 (stereo not drawn) [MLS000731683] | 1.69 | – |
| CC(C(=O)N=c1sc2ccccc2n1C)N1C(=O)C2CC=CCC2C1=O (stereo not drawn) | – | 120 |
| O=c1c2ccccc2c(-c2nnc(S)o2)nn1Cc1ccccc1 [2-(phenylmethyl)-4-(2-sulfanylidene-3H-1,3,4-oxadiazol-5-yl)-1-phthalazinone] | 3.27 | – |
| O=C(Cc1csc(-c2ccccc2)n1)NCc1ccc(F)cc1 [MLS000336311] | 19.4 | – |
| O=C(Nc1ccc(Cc2ccncc2)cc1)c1cccc([N+](=O)[O-])c1 [3-Nitro-N-(4-pyridin-4-ylmethyl-phenyl)-benzamide] | 9.28 | – |
| O=C(NCC1CCCN(C(=O)c2cccnc2)C1)c1ccc(-c2ccccc2)cc1 (stereo not drawn) [4-phenyl-N-[(1-pyridin-3-ylcarbonylpiperidin-3-yl)methyl]benzamide] | 0.657 | – |
| Cc1onc(-c2ccccc2Cl)c1C(=O)NC(=S)Nc1ccc(C(C)C)cc1 [3-(2-chlorophenyl)-5-methyl-N-(p-cumenylthiocarbamoyl)isoxazole-4-carboxamide] | 0.291 | – |
| CCOC(=O)c1cc2c(ccn2C)n1CC(=O)N1CCC(Cc2ccccc2)CC1 [1-[2-(4-Benzyl-piperidin-1-yl)-2-oxo-ethyl]-4-methyl-1,4-dihydro-pyrrolo[3,2-b]pyrrole-2-carboxylic acid ethyl ester] | 7.58 | – |
| N#CC(C(=O)c1cccc(F)c1)c1nc2ccccc2s1 (stereo not drawn) [(2Z)-2-(3H-1,3-benzothiazol-2-ylidene)-3-(3-fluorophenyl)-3-keto-propionitrile] | 9.66 | – |
| Cc1ccccc1OCC(=O)NNC(=O)CCN1C(=O)c2ccccc2C1=O [3-(1,3-dioxo-2-isoindolyl)-N'-[2-(2-methylphenoxy)-1-oxoethyl]propanehydrazide] | 14.8 | – |
| Cc1cccc(N2CCN(C(=O)Cn3ccc4ccccc4c3=O)CC2)c1C [2-[2-[4-(2,3-dimethylphenyl)-1-piperazinyl]-2-oxoethyl]-1-isoquinolinone] | – | 260 |
| NC(=O)COc1ccccc1/C=C1/SC(=O)N(CC(=O)N2CCc3ccccc3C2)C1=O [2-[2-({3-[2-(3,4-dihydro-2(1H)-isoquinolinyl)-2-oxoethyl]-2,4-dioxo-1,3-thiazolidin-5-ylidene}methyl)phenoxy]acetamide] | 16.5 | – |
| Cc1oc(-c2ccccc2)nc1C[S+]([O-])CC(=O)N1CCc2ccccc2C1 (stereo not drawn) [1-(3,4-dihydro-1H-isoquinolin-2-yl)-2-[(5-methyl-2-phenyl-1,3-oxazol-4-yl)methylsulfinyl]ethanone] | 4.86 | – |
| O=[N+]([O-])c1cc(-n2c(O)c3c(c2O)CCCC3)ccc1NC1CCN(Cc2ccccc2)CC1 [2-[3-nitro-4-[[1-(phenylmethyl)-4-piperidinyl]amino]phenyl]-3a,4,5,6,7,7a-hexahydroisoindole-1,3-dione] | 5.5 | – |
| Cc1ccc(/C=C2\SC(=S)N(c3c(C)n(C)n(-c4ccccc4)c3=O)C2=O)cc1 [3-(1,5-dimethyl-3-oxo-2-phenyl-2,3-dihydro-1H-pyrazol-4-yl)-5-(4-methylbenzylidene)-2-thioxo-1,3-thiazolidin-4-one] | 1.18 | – |
| O=C(CSc1ncccc1-c1nc2ccccc2[nH]1)N1CCN(c2ccccc2F)CC1 [MLS000033700] | 9.45 | – |
| c1ccc(-c2csc(N=NCc3ccco3)n2)cc1 [(2-furfurylideneamino)-(4-phenylthiazol-2-yl)amine] | 65 | – |
| COc1cc(C(=S)N2CCOCC2)cc(OC)c1OC(=O)Cc1ccc(F)cc1 [(2,6-dimethoxy-4-morpholin-4-ylcarbothioyl-phenyl) 2-(4-fluorophenyl)ethanoate] | 3.98 | – |
| Cc1ccc(/C=C2/Sc3ccccc3N(CC(=O)NCCCOC(C)C)C2=O)cc1 [2-[(2E)-2-[(4-methylphenyl)methylidene]-3-oxidanylidene-1,4-benzothiazin-4-yl]-N-(3-propan-2-yloxypropyl)ethanamide] | 276 | – |
